From US11419806B2, “Prebiotic oral care methods using a saccharide” (Colgate-Palmolive Company, priority 2013, dated 2022)

Tests used:
Test in all cases: Phenotype microarray metabolic activity
Format in all cases: cell-based
Actinomyces naeslundii = settings: for metabolic activity: OD 492 nm divided by OD of control (control = 1): A naeslundii
Protocol: (§1) The extent of metabolic activity of the tested bacteria in the presence of the above-mentioned saccharides after 24 hours and 48 hours was investigated through a high throughput phenotype microarray system (PM) for microbial cells (Biolog Inc.). Each PM can contain up to 95 different biochemical compounds (e.g. saccharides) that may act as substrates for bacteria as well as one negative control, not containing the substrates. Microarray plates were used in which the different wells of each plate were pre-loaded (by the manufacturer, Biolog Inc.) with different saccharides to be tested. Each bacterial species was tested using a separate microarray plate. Thus, a single bacterial species was tested with a variety of saccharides on each particular plate. The microarrays are based on redox technology, using cell respiration as a universal reporter. Active cell respiration results in the reduction of a tetrazolium dye and in the formation of a strong color—for example, when using the tetrazolium dye “Biolog Redox Dye Mix D”, the color changes from transparent/colorless to purple when the dye is reduced. The observation of this color change indicates which of the substrates improve the metabolic activity and health of the cells.
(§2) Each bacterial species was collected from blood agar plates (incubated for 48 hours anaerobically at 37° C.) and transferred to an IF-0 Base inoculation fluid (Biolog Inc.), which is a nutritionally poor medium. The resulting cell suspension was adjusted to a transmittance of 42% (relative to the transmittance of the base inoculation fluid with no bacterial species present) at 492 nm using a BioRad SmartSpec 3000 Photometer (the adjustment being effected by adding either further inoculation fluid or further bacteria until the transmittance of 42% was achieved). A 1:5 dilution of this suspension was prepared by mixing 3 mL of the 42% transmittance cell suspension with 15 mL of an inoculation fluid (which inoculation fluid was formed by mixing 11.6 mL sterile water, 62.5 mL IF-0 base inoculation fluid and 0.9 mL of the tetrazolium dye “Biolog Redox Dye mix D”), resulting in a final cell density which was equal to 85% transmittance using a BioRad SmartSpec 3000 Photometer. For each of the saccharides tested, the microarray plate (obtained from the supplier (Biolog Inc.) with saccharides already present in the relevant wells in powder form) was directly inoculated with 100 μL/well of this 85% transmittance cell suspension.
(§3) All plates were incubated in an anaerobic atmosphere at 37° C. Color changes were measured spectrophotometrically at 492 nm (Thermo Scientific Multiskan Ascent) at 24 hrs and 48 hrs using the same plate at both time points. […] After 24 hrs and 48 hrs under continuous shaking in a Multiscan microplate reader, the optical density (OD) of the synthetic medium at 24 hours and 48 hours was measured (using the microplate reader) at a wavelength of 492 nm for each combination of bacterium/saccharide, and for each of their respective controls (i.e. which contained the particular bacterium but no saccharide).
(§4) The experiment was carried out three times for each combination of bacterium with saccharide, with each repeat being carried out on a different day (thus providing three biological replicas). The controls were also carried out three times, as above. The values shown are the average (mean) of the three single values obtained (as detailed above) for each combination of bacterium with saccharide, at 24 hrs and at 48 hrs.

Actinomyces viscosus = settings: for metabolic activity: OD 492 nm divided by OD of control (control = 1): A viscosus
Protocol: as §1, §2, §3, §4

[1] = system: Aggregatibacter actinomycetemcomitans; settings: A actinomycetemcomitans
Protocol: as §1, §2, §3, §4

Capnocytophaga sputigena = settings: C sputigena
Protocol: as §1, §2, §3, §4

Fusobacterium nucleatum = settings: F nucleatum
Protocol: as §1, §2, §3, §4

Porphyromonas gingivalis = settings: P gingivalis
Protocol: as §1, §2, §3, §4

Prevotella intermedia = settings: P intermedia
Protocol: as §1, §2, §3, §4

S sanguinis = system: S sanguinis
Protocol: as §1, §2, §3, §4

Streptococcus gordonii = settings: S gordonii
Protocol: as §1, §2, §3, §4

Streptococcus mitis = settings: S mitis
Protocol: as §1, §2, §3, §4

Streptococcus mutans = settings: for metabolic activity: OD 492 nm divided by OD of control (control = 1): S mutans
Protocol: as §1, §2, §3, §4

Streptococcus salivarius = settings: for metabolic activity: OD 492 nm divided by OD of control (control = 1): S salivarius
Protocol: as §1, §2, §3, §4

Streptococcus sobrinus = settings: S sobrinus
Protocol: as §1, §2, §3, §4

Tannerella forsythia = settings: T forsythia
Protocol: as §1, §2, §3, §4

Veillonella parvula = settings: V parvula
Protocol: as §1, §2, §3, §4

Compound	metabolic activity: OD 492 nm divided by OD of control (control = 1) (Actinomyces naeslundii; 24 hrs)	metabolic activity: OD 492 nm divided by OD of control (control = 1) (Actinomyces naeslundii; 48 hrs)	metabolic activity: OD 492 nm divided by OD of control (control = 1) (Actinomyces viscosus; 24 hrs)	metabolic activity: OD 492 nm divided by OD of control (control = 1) (Actinomyces viscosus; 48 hrs)	metabolic activity: OD 492 nm divided by OD of control (control = 1) ([1]; 24 hrs)	metabolic activity: OD 492 nm divided by OD of control (control = 1) ([1]; 48 hrs)	metabolic activity: OD 492 nm divided by OD of control (control = 1) (Capnocytophaga sputigena; 24 hrs)	metabolic activity: OD 492 nm divided by OD of control (control = 1) (Capnocytophaga sputigena; 48 hrs)	metabolic activity: OD 492 nm divided by OD of control (control = 1) (Fusobacterium nucleatum; 24 hrs)	metabolic activity: OD 492 nm divided by OD of control (control = 1) (Fusobacterium nucleatum; 48 hrs)	metabolic activity: OD 492 nm divided by OD of control (control = 1) (Porphyromonas gingivalis; 24 hrs)	metabolic activity: OD 492 nm divided by OD of control (control = 1) (Porphyromonas gingivalis; 48 hrs)	metabolic activity: OD 492 nm divided by OD of control (control = 1) (Prevotella intermedia; 24 hrs)	metabolic activity: OD 492 nm divided by OD of control (control = 1) (Prevotella intermedia; 48 hrs)	metabolic activity: OD 492 nm divided by OD of control (control = 1) (S sanguinis; 24 hrs)	metabolic activity: OD 492 nm divided by OD of control (control = 1) (S sanguinis; 48 hrs)	metabolic activity: OD 492 nm divided by OD of control (control = 1) (Streptococcus gordonii; 24 hrs)	metabolic activity: OD 492 nm divided by OD of control (control = 1) (Streptococcus gordonii; 48 hrs)	metabolic activity: OD 492 nm divided by OD of control (control = 1) (Streptococcus mitis; 24 hrs)	metabolic activity: OD 492 nm divided by OD of control (control = 1) (Streptococcus mitis; 48 hrs)	also measured
OC[C@@H](O)[C@@H](O[C@H]1O[C@H](CO)[C@H](O)[C@H](O)[C@H]1O)[C@H](O)[C@@H](O)CO [D-Lactitol, 4-O-α-D-galactopyranosyl-D-glucitol]	2.4399	3.3992	4.2553	4.9364	0.8916	0.8237	0.9032	1.0097	0.9115	0.7913	0.8216	1.0092	0.9834	0.9481	1.0364	1.0188	1.5368	1.7842	1.0047	0.9006	increase in metabolic activity of A. naeslundii, in words (Actinomyces naeslundii; 24 hrs): marked increase; increase in metabolic activity of A. viscosus, in words (Actinomyces viscosus; 24 hrs): marked increase; increase in metabolic activity of S. mutans, in words (Streptococcus mutans; 24 hrs): borderline increase; metabolic activity: OD 492 nm divided by OD of control (control = 1) (Streptococcus mutans; 24 hrs): 2.0160; metabolic activity: OD 492 nm divided by OD of control (control = 1) (Streptococcus mutans; 48 hrs): 2.7520; increase in metabolic activity of S. salivarius, in words (Streptococcus salivarius; 24 hrs): marked increase; metabolic activity: OD 492 nm divided by OD of control (control = 1) (Streptococcus salivarius; 24 hrs): 4.7396; metabolic activity: OD 492 nm divided by OD of control (control = 1) (Streptococcus salivarius; 48 hrs): 5.1101; metabolic activity: OD 492 nm divided by OD of control (control = 1) (Streptococcus sobrinus; 24 hrs): 1.4178; metabolic activity: OD 492 nm divided by OD of control (control = 1) (Streptococcus sobrinus; 48 hrs): 1.3908; metabolic activity: OD 492 nm divided by OD of control (control = 1) (Tannerella forsythia; 24 hrs): 1.0703; metabolic activity: OD 492 nm divided by OD of control (control = 1) (Tannerella forsythia; 48 hrs): 1.1172; metabolic activity: OD 492 nm divided by OD of control (control = 1) (Veillonella parvula; 24 hrs): 0.8079; metabolic activity: OD 492 nm divided by OD of control (control = 1) (Veillonella parvula; 48 hrs): 0.6786
OC[C@H]1O[C@@](O)(CO)[C@@H](O[C@H]2O[C@H](CO)[C@@H](O)[C@H](O)[C@H]2O)[C@@H]1O [D-Turanose, α-D-glucopyranosyl-(1→3)-α-D-fructofuranose]	2.1636	2.7551	2.2260	3.0809	1.0170	1.2549	0.9893	1.0899	1.3517	1.6086	0.8165	0.7822	1.1121	1.2058	1.3458	1.5207	1.7899	2.1615	1.2969	1.3856	metabolic activity: OD 492 nm divided by OD of control (control = 1) (Streptococcus mutans; 24 hrs): 1.4769; metabolic activity: OD 492 nm divided by OD of control (control = 1) (Streptococcus mutans; 48 hrs): 2.1955; metabolic activity: OD 492 nm divided by OD of control (control = 1) (Streptococcus salivarius; 24 hrs): 1.1489; metabolic activity: OD 492 nm divided by OD of control (control = 1) (Streptococcus salivarius; 48 hrs): 1.2834; metabolic activity: OD 492 nm divided by OD of control (control = 1) (Streptococcus sobrinus; 24 hrs): 1.6552; metabolic activity: OD 492 nm divided by OD of control (control = 1) (Streptococcus sobrinus; 48 hrs): 1.8299; metabolic activity: OD 492 nm divided by OD of control (control = 1) (Tannerella forsythia; 24 hrs): 1.0435; metabolic activity: OD 492 nm divided by OD of control (control = 1) (Tannerella forsythia; 48 hrs): 1.1254; metabolic activity: OD 492 nm divided by OD of control (control = 1) (Veillonella parvula; 24 hrs): 0.8743; metabolic activity: OD 492 nm divided by OD of control (control = 1) (Veillonella parvula; 48 hrs): 0.7770
O[C@H]1[C@H](O)[C@@H](O)[C@H](O)[C@@H](O)[C@H]1O [Myo-Inositol, (1R,2R,3S,4S,5R,6S)-cyclohexane-1,2,3,4,5,6-hexol]	3.8627	4.5573	4.3733	4.6590	1.3215	1.5191	0.5471	0.8107	0.9063	0.8999	0.8077	0.7871	1.0174	1.0226	0.9436	1.0400	0.8556	0.8202	1.0571	0.9877	metabolic activity: OD 492 nm divided by OD of control (control = 1) (Streptococcus mutans; 24 hrs): 0.8961; metabolic activity: OD 492 nm divided by OD of control (control = 1) (Streptococcus mutans; 48 hrs): 0.8221; metabolic activity: OD 492 nm divided by OD of control (control = 1) (Streptococcus salivarius; 24 hrs): 0.9641; metabolic activity: OD 492 nm divided by OD of control (control = 1) (Streptococcus salivarius; 48 hrs): 0.8260; metabolic activity: OD 492 nm divided by OD of control (control = 1) (Streptococcus sobrinus; 24 hrs): 0.9699; metabolic activity: OD 492 nm divided by OD of control (control = 1) (Streptococcus sobrinus; 48 hrs): 0.9399; metabolic activity: OD 492 nm divided by OD of control (control = 1) (Tannerella forsythia; 24 hrs): 0.9597; metabolic activity: OD 492 nm divided by OD of control (control = 1) (Tannerella forsythia; 48 hrs): 0.9564; metabolic activity: OD 492 nm divided by OD of control (control = 1) (Veillonella parvula; 24 hrs): 1.0283; metabolic activity: OD 492 nm divided by OD of control (control = 1) (Veillonella parvula; 48 hrs): 1.0829
